Experimental data reported in patent publication US12636266B2 (Rivo Bio, Inc., priority 2024, dated 2026).

Experiments:
[1] = Z to E isomer conversion by NMR; assay type: physicochemical; settings: shortly following synthesis
Experimental: Compound 5, described here with structure shown in Scheme 1, is the stable E isomer. However, the initial reaction in Scheme 1 with compound 5-1 produces both the E and Z isomers of 5-2b. Column chromatography was used to separate the isomers and each isomer was then carried through the next three reactions separately, to produce both compound 5 and its Z isomer.

[2] = target: T1, human recombinant 5-HT2A receptor (Homo sapiens, UniProt P28223); experiment: IPOne HTRF agonist assay, percent activity at 5-HT2A; assay type: cell-based; settings: relative to a-Me-5-HT, CHO-K1 cells; for activation at 0.3 µM / activation at 30 µM: 1 h, read-out: Percent (a-Me-5-HT) Activity at 5-HT2A (30 uM/0.3 μM)
T1 construct: host or cells: CHO-K1
T1 sequence (P28223 whole entry): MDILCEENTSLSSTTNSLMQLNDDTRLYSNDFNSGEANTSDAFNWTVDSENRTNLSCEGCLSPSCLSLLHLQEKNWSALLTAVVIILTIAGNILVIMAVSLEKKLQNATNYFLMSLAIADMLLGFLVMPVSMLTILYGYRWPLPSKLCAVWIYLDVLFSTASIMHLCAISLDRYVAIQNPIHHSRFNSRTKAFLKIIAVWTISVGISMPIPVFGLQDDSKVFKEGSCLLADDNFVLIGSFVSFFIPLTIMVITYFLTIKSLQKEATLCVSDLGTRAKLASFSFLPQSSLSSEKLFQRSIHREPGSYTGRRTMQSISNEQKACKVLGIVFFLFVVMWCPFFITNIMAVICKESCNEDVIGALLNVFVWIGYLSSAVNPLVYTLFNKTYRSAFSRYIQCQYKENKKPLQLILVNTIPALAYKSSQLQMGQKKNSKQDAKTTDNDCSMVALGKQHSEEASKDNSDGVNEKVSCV
Experimental: Example 16: Percent (α-Me-5-HT) Activity at 5-HT2A Assay
Compounds were tested in the IPOne HTRF (Homogeneous Time Resolved Fluorescence) assay at Epics Therapeutics S.A. (Belgium). Briefly, CHO-K1 cells expressing human recombinant 5-HT2A receptor grown to mid-log phase in culture media without antibiotics were detached with PBS-EDTA, centrifuged and resuspended in medium without antibiotics buffer. 20,000 cells were distributed in a 96 well plate and incubated overnight at 37° C. with 5% CO2. For agonist testing (384-well, suspension), 5 μl of cells were dispensed on 5 μl of test compound or reference agonist in each well and the plate was incubated for 60 min. at 37° C. with 5% CO2. IP1-D2 reagent and anti-IP1 cryptate reagents were then dispensed in the wells and IP1 concentrations were then measured following the manufacturer recommendations.

[3] = target: T1, human recombinant 5-HT2A receptor; experiment: as above; assay type: cell-based; settings: relative to 5-HT

Compound	Percent (a-Me-5-HT) Activity at 5-HT2A (30 uM/0.3 μM) ([2]; 0.3 μM (second value))	Percent (a-Me-5-HT) Activity at 5-HT2A (30 uM/0.3 μM) ([2]; 30 uM (first value))	further results
COc1ccc2c(c1)/C(=C\C=O)CC2 (single isomer, unassigned) [Z isomer of compound 5-4]	–	–	Z isomer converting to the E isomer (by NMR) [1]: 40%
COc1ccc2c(c1)/C(=C/CN(C)C)CC2 [Compound 5, N,N-Dimethyl[(E)-2-(6-methoxy-1-indanylidene)ethyl]amine]	74%	96%	Percent (5-HT) Activity at 5-HT2A (30 μM) [3]: 92%
COc1ccc2c(c1)/C(=C(\F)CN(C)C)CC2 [Compound 10, N,N-Dimethyl[(Z)-2-(6-methoxy-1-indanylidene)-2-fluoroethyl]amine]	4%	1%	–
COc1ccc2c(c1)/C(=C/CN1CCC1)CC2 [Compound 12, 1-[(E)-2-(6-Methoxy-1-indanylidene)ethyl]azetidine]	27%	47%	–
CN(C)C/C=C1\CCc2ccc3c(c21)CCO3 [Compound 14, N,N-Dimethyl[(E)-2-(3-oxa-1,2,6,7-tetrahydro-as-indacen-8-ylidene)ethyl]amine]	6%	33%	–
CN(C)C/C=C1\C=Cc2ccccc21 [Compound 22, N,N-Dimethyl[(E)-2-(1-indenylidene)ethyl]amine]	5%	49%	–
COc1ccc2c(c1)/C(=C(/F)CN(C)C)CC2 [Compound 23, N,N-Dimethyl[(E)-2-(6-methoxy-1-indanylidene)-2-fluoroethyl]amine]	–	–	activation at 0.3 µM ([2]; 0.3 μM (second value)): -1%; activation at 30 µM ([2]; 30 uM (first value)): -2%
C(/CN1CCC1)=C1/CCc2ccc3c(c21)CCO3 [Compound 24, 1-[(E)-2-(3-Oxa-1,2,6,7-tetrahydro-as-indacen-8-ylidene)ethyl]azetidine]	17%	38%	–
COc1ccc2c(c1)CC/C2=C\CN1CCC1 [Compound 25, 1-[(E)-2-(5-Methoxy-1-indanylidene)ethyl]azetidine]	–	–	activation at 0.3 µM ([2]; 0.3 μM (second value)): 0%; activation at 30 µM ([2]; 30 uM (first value)): -3%
COc1ccc2c(c1)CC/C2=C\CN(C)C [Compound 26, N,N-Dimethyl[(E)-2-(5-methoxy-1-indanylidene)ethyl]amine]	–	–	activation at 0.3 µM ([2]; 0.3 μM (second value)): 10%; activation at 30 µM ([2]; 30 uM (first value)): -1%
FC(F)(F)Oc1ccc2c(c1)/C(=C/CN1CCC1)CC2 [Compound 27, 1-[(E)-2-(6-Trifluoromethoxy-1-indanylidene)ethyl]azetidine]	5%	8%	–
C(/CN1CCC1)=C1/CCc2cccnc21 [Compound 28, 1-[(E)-2-(4-Aza-3-indanylidene)ethyl]azetidine]	5/5%	5/5%	–
COC1C/C(=C\CN)c2ccccc21 (stereo not shown) [Compound 29]	6%	53%	–
COC1C/C(=C\CN2CCC2)c2ccccc21 (stereo not shown) [Compound 30, 1-[(E)-2-(3-Methoxy-1-indanylidene)ethyl]azetidine]	3%	24%	–
CN(C)C/C=C1\CCc2sccc21 [Compound 31, N,N-Dimethyl[(E)-2-{2-thiabicyclo[3.3.0]octa-1(5),3-dien-6-ylidene}ethyl]amine]	3%	2%	–
CCC(N)/C=C1\CCc2ccccc21 (stereo not shown) [Compound 101, 1-[(E)-(1-Indanylidene)methyl]propylamine]	15%	20%	–
OCc1ccc2c(c1)/C(=C/CN1CCC1)CC2 [Compound 103, {(E)-3-[2-(1-Azetidinyl)ethylidene]-5-indanyl}methanol]	9%	94%	–
